Source: publication PMC11744766, “Dual Inhibitors of SARS-CoV-2 3CL Protease and Human Cathepsin L Containing Glutamine Isosteres Are Anti-CoV-2 Agents” (Journal of the American Chemical Society, 2025)
“And” between values parts separate entries of the source, which are not always exact repeats. Equal entries are not always repeated. Where two headings read alike, the source gives them in different places.

What was measured:
[1] = target: T1, human cathepsin L (Homo sapiens, UniProt P07711); assay: Kinetic assay of human cathepsin L inhibition (Z-LR-AMC / Z-FR-AMC fluorescence); assay type: biochemical; settings: for mode of inhibition of hCatL: inhibitor vs variable substrate
T1 construct: His-tag (only implied by the Ni-NTA capture and the pET-28a(+) vector); host or cells: E. coli C43(DE3)

[2] = tested on: SARS-CoV-2 (USA_WA1/2020 isolate); assay: Vero E6-based microneutralization assay of SARS-CoV-2 infection (CPE); assay type: cell-based; settings: for fold less potent in inhibiting SARS-CoV-2 infection than Nirmatrelvir and PF-835231: ratio of EC50
[3] = target: T2, SARS-CoV-2 3CL protease (3CL-PR) (Severe acute respiratory syndrome coronavirus 2, UniProt P0DTC1); assay: biochemical; assay type: biochemical
[4] = target: T3, human cathepsin B (Homo sapiens, UniProt P07858); assay: Kinetic assay of human cathepsin B inhibition (Z-LR-AMC fluorescence); assay type: biochemical
T3 construct: purchased Millipore Sigma or R&D Systems

[5] = target: T2, SARS-CoV-2 3CL protease (3CL-PR); settings: cited from earlier work; for Ki: read-out: Ki (3CL-PR)
[6] = target: T1, human cathepsin L; settings: read-out: Ki (hCatL), cited from earlier work
[7] = 25 °C, pH 5.5, time-dependent inhibitors at t ∼ 30 min (steady-state), read-out: Ki * (nM) hCat L
[8] = Severe acute respiratory syndrome coronavirus 2, Vero C1008, 72 h, Vero E6 cells, 2 μM CP-100356, CPE after 3 days, read-out: Anti-SARS-CoV-2 Activity EC50
[9] = 25 °C, pH 7.5, time-dependent inhibitors at t ∼ 30 min (steady-state), read-out: Ki * (nM) 3CL-PR
[10] = 25 °C, pH 5.5, time-dependent inhibitors at t ∼ 30 min (steady-state), read-out: Ki * (nM) hCat B
[11] = initial rates, t = 0–3 min, read-out: Ki (hCatB) from initial rates vi/v0

T1 sequence (P07711 114-333): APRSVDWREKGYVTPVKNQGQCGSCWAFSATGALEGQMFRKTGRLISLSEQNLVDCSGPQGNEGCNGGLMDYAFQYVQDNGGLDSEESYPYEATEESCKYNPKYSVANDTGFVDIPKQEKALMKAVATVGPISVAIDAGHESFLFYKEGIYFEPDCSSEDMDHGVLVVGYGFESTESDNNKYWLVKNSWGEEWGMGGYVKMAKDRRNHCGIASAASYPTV

## CC(C)C[C@H](NC(=O)OCc1ccccc1)C(=O)N[C@@H](CC1CCCCC1)C(=O)N[C@H](C=O)Cc1ccc[nH]c1=O [Compound 3]
[1]; [7]
  Ki: 8 ± 1 nM
[1]
  mode of inhibition of hCatL: competitive inhibitor
[2]; [8]
  EC50: 0.47 µM
[2]; Vero E6 cells
  fold less potent in inhibiting SARS-CoV-2 infection than Nirmatrelvir and PF-835231: 2 fold
[3]; [9]
  Ki: 9 ± 2 nM
[3]; competitive pattern at < 10 min incubation (Figure S1B), read-out: Ki (3CL-PR) before longer incubation
  Ki: 16 nM
[3]; inhibitor vs variable substrate
  mode of inhibition of 3CL-PR: competitive inhibitor
[3]; ratio of Ki
  fold less potent vs 3CL-PR than Nirmatrelvir: 3 fold
[4]; [10]
  Ki: 280 ± 5 nM
[4]; [11]
  Ki: 290 nM

## CC(C)(C)[C@H](NC(=O)C(F)(F)F)C(=O)N1C[C@H]2[C@@H]([C@H]1C(=O)N[C@H](C#N)C[C@@H]1CCNC1=O)C2(C)C [Nirmatrelvir, reference compound]
[2]; [8]
  EC50: 0.23 µM

## CC(C)CC(NC(=O)c1cc2ccccc2[nH]1)C(=O)NC(C=O)Cc1ccc[nH]c1=O (centres unmarked) [Compound 4]
[1]; [7]
  Ki: 17 ± 1 nM
[2]; [8]
  EC50: 15 µM
[3]; [9]
  Ki: 38 ± 4 nM
[4]; [10]
  Ki: 210 ± 20 nM

## O=CC(Cc1ccc[nH]c1=O)NC(=O)C(CC1CCCCC1)NC(=O)c1cc2ccccc2[nH]1 (centres unmarked) [Compound 5]
[1]; [7]
  Ki: 9 ± 2 nM
[1]; CHA for Leu at P2
  fold improvement in inhibition of hCatL, 5 over 4: 2 fold
[1]
  mode of inhibition of hCatL: competitive inhibitor
[2]; [8]
  EC50: 1.9 µM
[2]; Vero E6 cells
  fold less potent in inhibiting SARS-CoV-2 infection than Nirmatrelvir and PF-835231: eight-fold less active
[3]; [9]
  Ki: 27 ± 5 nM
[3]; CHA for Leu at P2
  fold improvement in inhibition of 3CL-PR, 5 over 4: 1.5 fold
[4]; [10]
  Ki: 101 ± 3 nM

## CN1CCN(C(=O)NC(Cc2ccccc2)C(=O)NC2Cc3ccccc3OC2O)CC1 (centres unmarked) [Compound 1]
[5]; compound 1
  inhibition of 3CL-PR: did not inhibit
  Ki: > 10000 nM

## COc1cccc2[nH]c(C(=O)NC(CC(C)C)C(=O)NC(C=O)Cc3ccc[nH]c3=O)cc12 (centres unmarked) [Compound 6]
[1]; 4-methoxy group on indole
  fold improvement in inhibition of hCatL, 6 over 4: 30 fold
[1]; [7]
  Ki: 0.6 nM and 0.55 nM
[1]; initial rates, t = 0–180 s, read-out: Ki (hCatL) from initial rates vi/v0
  Ki: 2.3 ± 0.4 nM
[2]; [8]
  EC50: 1.25 µM
[2]; Vero E6 cells
  fold less potent in inhibiting SARS-CoV-2 infection than Nirmatrelvir and PF-835231: five-fold less potent
[2]; not evaluated under the same conditions
  fold less anti-CoV-2 activity in comparison to AC1115: 4 fold
[3]
  fold more potent vs 3CL-PR, 6 compared to 8: 50 fold
[3]; 4-methoxy group on indole
  fold improvement in inhibition of 3CL-PR, 6 over 4: 15 fold
[3]; [9]
  Ki: 2.6 ± 0.4 nM
[3]; initial rates, t = 0–180 s, read-out: Ki (3CL-Pro) from initial rates vi/v0
  Ki: 20 ± 2 nM
[4]; [10]
  Ki: 100 ± 2 nM
[4]; [11]
  Ki: 65 ± 3 nM

## COc1cccc2[nH]c(C(=O)N[C@@H](CC(C)C)C(=O)N[C@@H](C[C@@H]3CCNC3=O)C(=O)CO)cc12 [PF-835231, reference compound]
[2]; [8]
  EC50: 0.23 µM
[3]; [9]
  Ki: 0.23 ± 0.09 nM
[3]; ratio of Ki
  fold more potent than Nirmatrelvir vs 3CL-PR: more than 10 fold

## CN1CCN(C(=O)NC(Cc2ccccc2)C(=O)NC2Cc3cccnc3OC2O)CC1 (centres unmarked) [Compound 2]
[6]; compounds 1 and 2
  Ki: 1.03 nM and 1 nM
[5]; compound 2
  Ki: 250 nM

## COc1cccc2[nH]c(C(=O)N[C@@H](CC(C)C)C(=O)N[C@H](C=O)Cc3cocn3)cc12 [Compound 8]
[1]; [7]
  Ki: 1.1 ± 0.1 nM
[2]; Severe acute respiratory syndrome coronavirus 2, Vero C1008, 72 h, read-out: Anti-SARS-CoV-2 Activity EC50 (μM), Vero E6 cells, 2 μM CP-100356, CPE after 3 days
  EC50: 0.62 µM
[2]; Vero E6 cells, 2 μM CP-100356, CPE after 3 days, read-out: Anti-SARS-CoV-2 Activity EC50
  EC50: 0.625 µM
[3]; [9]
  Ki: 124 ± 5 nM
[4]; [10]
  Ki: 189 ± 9 nM

## CN1CCN(C(=O)N[C@@H](Cc2ccccc2)C(=O)N[C@H](/C=C/S(=O)(=O)c2ccccc2)CCc2ccccc2)CC1 [Compound K11777, reference compound]
[5]; K11777
  Ki: > 10000 nM

## CC(C)C[C@H](NC(=O)c1cc2ccccc2[nH]1)C(=O)N[C@H](C=O)C[C@@H]1CCNC1=O [AC1115, reference compound]
[6]; AC1115
  Ki: ~0.06 nM
[5]; AC1115
  Ki: 2.4 nM
